Patent US20030212034A1, “Method of treatment of obesity and paralyzed muscle and ergogenic aids” (priority 2002, published 2003)

Legend:
[1] = tested on: carnitine palmitoyl-transferase; assay: Muscle carnitine palmitoyl-transferase activity after chronic AICAR injection; assay type: in vivo, rat; details: chronic AICAR 1 mg/g daily 4 wk
Description: (§1) To determine the effect of chronic injection of AICAR on muscle enyzme activities or expression and on muscle GLUT4, rats were injected subcutaneously (between 8 and 10 a.m.) with AICAR (1 mg/g) or saline vehicle daily for 28±1 days in succession. Beginning with the first injection, controls were pair fed with AICAR-injected rats. Rats were anesthetized by intraperitoneal injection of pentobarbital sodium 22-25 hours after the last AICAR injection and the white and red regions of the quadriceps and the soleus muscles were removed and frozen as described above. Muscles were kept frozen at −70° C. until analyzed. Liver, heart, kidney, and fat pads were weighed.
For enzyme activity measurements, 10% homogenates were made from the respective muscles in 175 mM KCl, 10 mM GSH, 2 mM EDTA, pH 7.4. This homogenate was frozen and thawed 3 times and mixed thoroughly prior to enzymatic measurements. For succinate dehydrogenase and lactate dehydrogenase, an aliquot of the homogenate was centrifuged at 700×g for 10 min at 4° C. The remainder of the assays were performed on aliquots and dilutions of the mixed whole homogenate. Assays were performed by the following methods: citrate synthase, succinate dehydrogenase, the mitochondrial fraction of malate dehydrogenase, hexokinase, lactate dehydrogenase, carnitine palmitoyl transferase and hydroxyacyl-CoA dehydrogenase. Srere, P. A. Methods in Enzymology 13:3-6, 1969; King, T. E. Methods Enzymol 10:322-335, 1967; Shonk, C. E. & G. E. Boxer, Cancer Res. 24:709-721, 1964; Uyeda, K., & E. Racker, J. Biol Chem 240:4682-4688, 1965; Pesce, A., et al. J. Biol. Chem. 239:1753-1761, 1964; Baldwin, K. M., et al. Am. J. Physiol 222:373-378, 1972; Mole, P. A., et al. J. Clin. Invest. 50:2323-2330, 1971; Kobayashi, A. et al. J. Biochem. 119:775-782, 1996.

GLUT4 = assay: Muscle GLUT4 by western blot after chronic AICAR injection; assay type: in vivo, rat; details: AICAR 1 mg/g 4 weeks, FIG. 5
Description: as §1
For the chronic effects of AICAR injection muscles were analyzed for glycogen GLUT-4, hexokinase, lactate dehydrogenase, and several mitochondrial enzymes. Hassid, W. Z., & S. Abraham Methods Enzymol. 3:35-36, 1957. GLUT4 was quantitated by western blotting as described previously using GLUT4 polyclonal antibody RaIRGT, Biogenesis, Sandown, N.H.) and horseradish peroxidase-conjugated donkey anti-rabbit IgG (Amersham Life Science, Arlington Heights, Ill.). Holmes, B. F., et al. J. Appl Physiol 87:1990-1995, 1999. δ-Aminolevulinic acid synthase was determined using western blotting techniques as described previously. Li, B., et al. J. Biol. Chem. 274:17534-17540, 1999. For determination of cytochrome c, muscles were homogenized in 10 mM n-2-hydroxyethylpiperazine-N′-2-ethanesulfonic acid (HEPES), 1 mM EDTA, and 250 mM sucrose (HES buffer). […] Cytochrome c was detected by incubating the nitrocellulose blots with a rabbit polyclonal antibody against rabbit heart cytochrome c (Alpha Diagnostics International, San Antonio) followed by horseradish peroxidase-conjugated anti-rabbit immunoglobulin G. Antibody bound GLUT4, δ-Aminolevulinic acid synthase, and cytochrome c were visualized using enhanced chemiluminescence. Protein bands were quantified by densitometry.

NC(=O)c1ncn([C@@H]2O[C@H](CO)[C@@H](O)[C@H]2O)c1N [AICAR, 5-aminoimidazole-4-carboxamide-1-β-D-ribofuranoside]
CPT activity ([1]; red quadriceps): 0.46 ± 0.02 µmol/g/min
CPT activity ([1]; soleus): 0.62 ± 0.02 µmol/g/min
CPT activity ([1]; white quadriceps): 0.16 ± 0.01 µmol/g/min
GLUT4 vs saline-injected controls (GLUT4; red region of the quadriceps): significantly increased
GLUT4 vs saline-injected controls (GLUT4; soleus, p=0.12): did not reach statistical significance
GLUT4 vs saline-injected controls (GLUT4; white region of the quadriceps): significantly increased
